# How the values were obtained:
# mouse NPY Y5 receptor = molecular target: T1, mouse NPY Y5 receptor (Mus musculus, UniProt O70342); assay: Affinity for mouse NPY Y5 receptor ([125I] peptide YY binding, CHO cell membranes); settings: inhibition of specific [125I] peptide YY binding, membranes of CHO cells expressing mouse NPY Y5 receptor
# T1 construct: expressed in transfected cells
# T1 sequence (O70342 1-466): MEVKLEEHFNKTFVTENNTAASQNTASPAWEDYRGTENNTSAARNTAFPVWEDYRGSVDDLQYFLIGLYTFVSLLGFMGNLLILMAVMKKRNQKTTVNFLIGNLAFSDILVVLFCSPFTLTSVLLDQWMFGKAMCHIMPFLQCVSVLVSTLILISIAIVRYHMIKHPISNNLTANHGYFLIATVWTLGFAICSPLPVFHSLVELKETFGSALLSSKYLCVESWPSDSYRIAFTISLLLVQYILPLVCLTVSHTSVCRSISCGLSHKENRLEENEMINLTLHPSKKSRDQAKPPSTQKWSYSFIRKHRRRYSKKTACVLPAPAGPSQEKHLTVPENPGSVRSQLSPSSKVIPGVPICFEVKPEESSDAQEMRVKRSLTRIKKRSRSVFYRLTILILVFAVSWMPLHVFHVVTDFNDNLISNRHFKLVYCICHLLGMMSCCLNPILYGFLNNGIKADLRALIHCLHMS
# Text: cDNA sequence encoding a mouse NPY Y5 receptor (Biochim. Biophys. Acta 1328:83-89, 1997) was cloned in a vector (pME18S, Takebe et al. Mol. Cell. Biol. 8, 8957). The obtained expression vector was transfected into CHO cells as a host by using Lipofect AMINE Reagent (Trademark, Gico BRL Co., Ltd.) according to the instruction manual. The cells that stably express NPY Y5 receptor were obtained.
# The membranes prepared from the CHO cells expressing NPY Y5 receptor, the compound of this invention and 30,000 cpm [^125I] peptide YY (60 pM of final concentration: Amersham) were incubated in the assay buffer (20 mM HEPES-Hanks buffer containing 0.1% bovine serum albumin, pH 7.4) at 25° C. for 2 hours, and then the membrane was filtered from the mixture through a glass filter (GF/C) presoaked with 1% polyethyleneimine. After washing with 50 mM Tris-HCl buffer (pH 7.4), radioactivity retained on the filters was quantified with a gamma counter. Nonspecific binding was defined as the amount of radioactivity bound to the membranes after incubation in the presence of 200 nM of peptide YY. The 50% inhibitory concentration of the test compound against the specific peptide YY binding (IC50 value) was calculated (Inui, A. et al. Endocrinology 131, 2090-2096 (1992)).
# [1] = Pharmacokinetic analysis in rats (cassette dosing, intravenous); format: in vivo; settings: male, Crl, CD (SD), rat, plasma, intravenous administration (0.5 mg/mL/kg); for clearance: read-out: Rat CLtot; for half-life: read-out: Rat t½ (converted)
# Method: By using the cassette dosing method, half-life (t1/2) and total clearance (CLtot) of the compounds of this invention were estimated from change in plasma concentration of each compound in rats (Crl; CD (SD), ♂, 8 weeks) after intravenous administration (0.5 mg/mL/kg).
# [2] = Evaluation for brain penetration in rats (cassette dosing); format: in vivo; settings: male, Crl; CD (SD), rat; brain/plasma partition coefficient, 30 minutes after intravenous administration (0.5 mg/mL/kg) in rats
# Method: (§1) By using the cassette dosing method (Drug. Metab. Dispos. (2001); 29, 957-966), brain penetration rate of the compounds (brain/plasma partition coefficients; Kp) were evaluated from plasma and brain concentrations at 30 minutes after intravenous administration (0.5 mg/mL/kg) in rats (Crl; CD (SD), ♂, 8 weeks) or at 3 or 5 hours after oral administration (2 mg/10 mL/kg) in mice (Jcl; C57BL/6J, ♂, 8 weeks).
# [3] = Evaluation for brain penetration in mice (cassette dosing); format: in vivo; settings: male, Jcl; C57BL/6J, mouse; brain/plasma partition coefficient, 3 or 5 hours after oral administration (2 mg/10 mL/kg) in mice
# Method: as §1
# NPY Y5 receptor = molecular target: T2, NPY Y5 receptor (Mus musculus, UniProt O70342); assay: Food intake in mice induced by ICV NPY Y5 receptor specific agonist; format: in vivo
# T2 construct: from tissue
# T2 sequence (O70342 1-466): T1 sequence (O70342 1-466)
# Method: Under diethylether anesthesia the skull of male C57BL/6J mice (12-14 week old, 25-30 g) was exposed by making an incision about 1-cm long from external occipital crest to nasal dorsum, and drilled in the 1-mm lateral position to the left following 1-mm posterior from bregma. After recovery from anesthesia mice were dosed with either 0.5% hydroxypropylmethyl cellulose solution (Shin-Etsu Chemical Co., Ltd) or the compounds of this invention suspended in the 0.5% hydroxypropylmethyl cellulose solution. At one hour after the treatment, each animal received a NPY Y5 receptor specific agonist, [cPP^1-7, NPY^19-23, Ala^31, Aib^32, Gln^34]-hPancreatic Polypeptide (0.1 nmol/1.5 μL/mouse) through the skull opening using a canula. Residual food was measured at 2 and 4 hours after the treatment, and the difference in food intake between the compounds-treated mice and 0.5% hydroxypropylmethyl cellulose solution-treated mice was calculated. The compound at 6 mg/kg caused a significant reduction in food intake of mice compared to the treatment with 0.5% hydroxypropylmethyl cellulose solution.
# For example, mean food intakes at 2 and 4 hours after oral administration of Compound IVa-9 at 6 mg/kg in mice (Group A) were 0.24±0.05 g and 0.51±0.06 g, respectively. On the other hand, mean food intakes at 2 and 4 hours after oral administration of 0.5% hydroxypropylmethyl cellulose solution in mice (Group B) were 0.58±0.07 g and 1.26±0.10 g, respectively. Also, mean food intakes at 2 and 4 hours after oral administration of 0.5% hydroxypropylmethyl cellulose solution without ICV injection of NPY Y5 receptor specific agonist in mice (Group C) were 0.06±0.04 g and 0.14±0.05 g, respectively. After subtracting the mean value of Group C from that of Group A or B, the inhibition rates of the compound on food intake at 2 and 4 hours after administration in Group A against Group B were estimated.
IC50 (mouse NPY Y5 receptor),clearance [1],half-life [1],Kp at 0.5 h [2],Kp at 5 h [3],SMILES,further results
1.1 nM,–,–,–,–,CC(C)(C)S(=O)(=O)N[C@H]1CC[C@H](c2cc3c(-c4ccccn4)cccc3[nH]2)CC1 [Ia-2],–
0.28 nM,–,–,–,–,CC(C)(C)S(=O)(=O)N[C@H]1CC[C@H](c2cc3cc(-c4ccccn4)ccc3[nH]2)CC1 [Ia-7],–
–,17.8 mL/min/kg,1.57 h,3.55,2.11,CC(C)(C)S(=O)(=O)N[C@H]1CC[C@H](c2cc3cc(-c4ncccn4)ccc3[nH]2)CC1 [Ia-8],–
5.5 nM,–,–,–,–,CC(C)(C)S(=O)(=O)N[C@H]1CC[C@H](c2cc3ccc(-c4ccccn4)cc3[nH]2)CC1 [Ia-18],–
–,–,–,2.3,1.33,CC(C)(C)S(=O)(=O)N[C@H]1CC[C@H](c2cc3nc(-c4ccccc4F)ccc3[nH]2)CC1 [Ib-13],–
0.29 nM,–,–,–,–,CC(C)(C)S(=O)(=O)N[C@H]1CC[C@H](c2cc3nc(-c4ccccn4)ccc3[nH]2)CC1 [Ib-14],–
1.3 nM,–,–,–,–,CC(C)(C)S(=O)(=O)N[C@H]1CC[C@H](c2cc3c(-c4ccccn4)cncc3[nH]2)CC1 [Ib-28],–
0.75 nM,–,–,–,–,CC(C)(C)S(=O)(=O)N[C@H]1CC[C@H](c2cc3cc(-c4ccccn4)cnc3[nH]2)CC1 [Ib-32],–
–,–,–,1.91,0.89,CC(C)(C)S(=O)(=O)N[C@H]1CC[C@H](c2cc3nc(-c4ccc(F)cc4)ncc3[nH]2)CC1 [Ib-35],–
2.2 nM,2.6 mL/min/kg,6.4 h,–,–,CC(C)(C)S(=O)(=O)N[C@H]1CC[C@H](c2nc(-c3ccccc3)n[nH]2)CC1 [Va-2],–
–,3.82 mL/min/kg,9.1 h,–,–,CC(C)(C)S(=O)(=O)N[C@H]1CC[C@H](c2nc(-c3cccc(Cl)c3)n[nH]2)CC1 [Va-5],–

# The next lines start with the molecule.
SMILES,IC50 (mouse NPY Y5 receptor),clearance [1],half-life [1],Kp at 0.5 h [2],Kp at 5 h [3],further results
CC(C)(C)S(=O)(=O)N[C@H]1CC[C@H](c2nc(-c3ccccc3)c[nH]2)CC1 [IIIa-1],0.85 nM,–,–,–,–,–
CC(C)(C)S(=O)(=O)N[C@H]1CC[C@H](c2nc(-c3ccc(Cl)c(Cl)c3)c[nH]2)CC1 [IIIa-4],–,14.8 mL/min/kg,2.96 h,1.37,0.45,–
CC(C)(C)S(=O)(=O)N[C@H]1CC[C@H](c2nc(-c3cccc(C#N)c3)c[nH]2)CC1 [IIIa-13],–,14.5 mL/min/kg,1.17 h,–,–,–
CC(C)(C)S(=O)(=O)N[C@H]1CC[C@H](c2nc(-c3ccccc3)c(Cl)[nH]2)CC1 [IIIb-1],–,3.46 mL/min/kg,4.04 h,–,–,–
CC(C)(C)S(=O)(=O)N[C@H]1CC[C@H](c2nc(-c3ccccc3)c(C(F)(F)F)[nH]2)CC1 [IIIb-5],–,3.84 mL/min/kg,7.67 h,–,–,–
COc1cccc(-c2nc([C@H]3CC[C@H](NS(=O)(=O)C(C)(C)C)CC3)[nH]c2C(F)(F)F)c1 [IIIb-7],0.7 nM,–,–,–,–,–
CC(C)(C)S(=O)(=O)N[C@H]1CC[C@H](c2[nH]cc(-c3ccccc3)c2C#N)CC1 [IIa-3],0.22 nM,–,–,–,–,–
CC(C)(C)S(=O)(=O)N[C@H]1CC[C@H](c2cc(-c3ccccc3)n[nH]2)CC1 [IVa-3],1.4 nM,7.43 mL/min/kg,3.82 h,3.69,1.78,–
CC(C)(C)S(=O)(=O)N[C@H]1CC[C@H](c2cc(-c3ccc(F)cc3)n[nH]2)CC1 [IVa-9],–,2.67 mL/min/kg,13.6 h,2.28,2.41,"inhibition rate on food intake at 2 hours (NPY Y5 receptor; 6 mg/kg oral, Group A against Group B after subtracting Group C, 2 hours): 65.4%; inhibition rate on food intake at 4 hours (NPY Y5 receptor; 6 mg/kg oral, Group A against Group B after subtracting Group C, 4 hours): 67.0%; mean food intake at 2 hours (NPY Y5 receptor; oral administration at 6 mg/kg in mice, ICV NPY Y5 agonist, 2 hours): 0.24 ± 0.05 g; mean food intake at 4 hours (NPY Y5 receptor; oral administration at 6 mg/kg in mice, ICV NPY Y5 agonist, 4 hours): 0.51 ± 0.06 g"
Cc1c(-c2ccccc2)n[nH]c1[C@H]1CC[C@H](NS(=O)(=O)C(C)(C)C)CC1 [IVb-1],–,–,–,1.88,1.44,–
CC(C)(C)S(=O)(=O)N[C@H]1CC[C@H](c2[nH]nc(-c3ccccc3)c2F)CC1 [IVb-3],–,4.04 mL/min/kg,8.14 h,5.84,3.14,–
CC(C)(C)S(=O)(=O)N[C@H]1CC[C@H](c2[nH]nc(-c3ccccc3)c2C#N)CC1 [IVb-23],0.37 nM,–,–,–,–,–
